According to patent publication US6403637B1, “Methods of modulating matrix metalloproteinase activity and uses thereof” (priority 1999, dated 2002):

What was measured:
UMR 106-01 cells [1] = test: Competition for 125I collagenase-3 binding in UMR 106-01 cells; set-up: species or system rat; settings: for competition efficiency compared to full-length collagenase-3: 125I mouse collagenase-3; for percent of mouse collagenase-3 binding, UMR-106-01: competitor at 200-, 400- and 800-fold excess over 125I mouse collagenase-3, ± S.E.M., seven pooled experiments; for competition for 125I mouse collagenase-3 binding (in words): compared to full-length MMP-13
Description: (§1) For all binding experiments, cells were seeded into 2.0 cm^2 wells. After the cells reached approximately 95% confluence, the medium was replaced with fresh medium containing 1 mg/ml BSA and the cells were assayed for binding 4 h later. The cells were first washed with maintenance medium, then incubated in the same medium with 0.01% Tween 80 containing ^125I-rat collagenase-3 or other iodinated ligands at 4° C. for 2 h. Non-specific binding was assessed by adding a 50-100-fold excess of cold ligand to half the wells, while an equivalent volume of buffer was added to the remaining wells. After incubation, the wells were washed three times with ice-cold MEM (0.5 ml). The cells were then lysed with 500 μl of 1 M NaOH and the lysates were counted on a gamma counter. Protein labeling with ^125I was done using the chloramine T method (Greenwood et al., 1963, Biochem. J. 89:114). The proteins had specific activities ranging from 9 to 27 μCi/μg.
(§2) These proteins were used as competitors in a series of binding assays in UMR cells using ^125I mouse collagenase-3. Radioactive labeling and binding assays were performed as in Example 1.

[2] = system: MEF-1 mouse embryo fibroblasts; test: Competition for 125I collagenase-3 binding in MEF-1 cells; settings: competitor at 200-, 400- and 800-fold excess over 125I mouse collagenase-3; ± S.E.M., triplicate wells
Description: as §1
(§3) In order to exclude the possibility that the collagenase-3 receptor is the low density lipoprotein receptor-related protein, two cell lines of mouse embryo fibroblasts were used: wild-type (MEF-1) and low density lipoprotein receptor-related protein-null (MEF-2) (both provided by Dr. Joachim Herz). These cells were cultured in Dulbecco's MEM with 10% FBS, 10 units penicillin/ml, 10 μg streptomycin/ml.
as §2
(§4) This region thus appears to be the high-affinity binding domain recognized by the collagenase-3 receptor, and the other two domains (SEQ ID's NO:1 and 3) may be recognized by the lower-affinity low density lipoprotein receptor-related protein or may alternatively stabilize the interaction with the collagenase-3 receptor. To investigate the contribution of each receptor, two mouse embryo fibroblast (MEF) cell lines were utilized. The MEF-1 cell line is known to express both the collagenase-3 receptor and the low density lipoprotein receptor-related protein, while the MEF-2 cell line has been rendered low density lipoprotein receptor-related protein-null. […] This hypothesis is confirmed by the data on Table 4.

[3] = system: UMR 106-01 rat osteosarcoma cells; test: Binding of 125I-labeled proteinases to UMR 106-01 cells; settings: for binding to UMR cells (in words): 125I-labeled protein, direct binding; for Specific binding: 125I-labeled ligand 8 nM, means ± SEM for triplicate wells
[4] = system: MEF-2 (LRP null) mouse embryo fibroblasts; test: Competition for 125I collagenase-3 binding in MEF-2 (LRP null) cells; settings: for percent of mouse collagenase-3 binding, MEF-2 (LRP null): competitor at 200-, 400- and 800-fold excess over 125I mouse collagenase-3, ± S.E.M., triplicate wells; for competition for receptor binding in MEF-2 cells (in words): compared to MEF-1 cells
Description: as §1, §3, §2, §4

UMR 106-01 cells [5] = test: Internalization assay in UMR 106-01 cells; format: cell-based, rat
Description: Although the low density lipoprotein receptor-related protein is not required for rat collagenase-3 binding to the cell, it might be required for ligand internalization. Therefore, internalization assays were performed with ^125I-rat collagenase-3 using MEF-1 and MEF-2 cells as follows. After binding 125I-rat labeled proteins as above, the cells were washed three times with cold modified Eagle's media (0.5 ml) to remove unbound ligand. The cells were then warmed to 37° C. by the addition of prewarmed modified Eagle's media (0.25 ml), and incubated at 37° C. for selected intervals. At each time point, the media were collected, and the cells were washed once with ice-cold MEM, then incubated with 0.25% Pronase®-E in modified Eagle's media for 15 min at 4° C. to strip cell surface proteins. The cell suspension was then centrifuged, and the radioactivity associated with cell pellets (defining internalized ^125I-proteins) was measured at each time point.
It is known that RAP inhibits internalization of ligands by the low density lipoprotein receptor-related protein (Kounnas et al., 1996, J. Biol. Chem 271:6523). Therefore, internalization assays were performed using ^125I-labeled rat collagenase-3 as a ligand and receptor-associated protein as a competitor. Human receptor-associated protein from the pGEX-receptor-associated protein expression vector (provided by Dr. Joachim Herz, University of Texas Southwestern Medical Center, Dallas, Tex.) was expressed in bacteria and prepared as described in Herz et al., 1991, J. Biol. Chem. 266:21232.
To investigate the mechanism by which RAP regulates internalization of collagenase-3, an experiment was performed where excess unlabeled RAP or rat collagenase-3 was prebound to UMR 106-01 cells. Binding and internalization of ^125I-labeled rat collagenase-3 and RAP were then allowed to proceed.

collagenase-3 receptor = target: T1, collagenase-3 receptor (Rattus norvegicus, UniProt Q4TU93); test: Scatchard analysis of 125I-mMMP-13 binding to UMR 106-01 cells, high affinity site
T1 construct: endogenous in cells; host or cells: UMR 106-01 rat osteosarcoma cells
T1 sequence (Q4TU93 31-1480): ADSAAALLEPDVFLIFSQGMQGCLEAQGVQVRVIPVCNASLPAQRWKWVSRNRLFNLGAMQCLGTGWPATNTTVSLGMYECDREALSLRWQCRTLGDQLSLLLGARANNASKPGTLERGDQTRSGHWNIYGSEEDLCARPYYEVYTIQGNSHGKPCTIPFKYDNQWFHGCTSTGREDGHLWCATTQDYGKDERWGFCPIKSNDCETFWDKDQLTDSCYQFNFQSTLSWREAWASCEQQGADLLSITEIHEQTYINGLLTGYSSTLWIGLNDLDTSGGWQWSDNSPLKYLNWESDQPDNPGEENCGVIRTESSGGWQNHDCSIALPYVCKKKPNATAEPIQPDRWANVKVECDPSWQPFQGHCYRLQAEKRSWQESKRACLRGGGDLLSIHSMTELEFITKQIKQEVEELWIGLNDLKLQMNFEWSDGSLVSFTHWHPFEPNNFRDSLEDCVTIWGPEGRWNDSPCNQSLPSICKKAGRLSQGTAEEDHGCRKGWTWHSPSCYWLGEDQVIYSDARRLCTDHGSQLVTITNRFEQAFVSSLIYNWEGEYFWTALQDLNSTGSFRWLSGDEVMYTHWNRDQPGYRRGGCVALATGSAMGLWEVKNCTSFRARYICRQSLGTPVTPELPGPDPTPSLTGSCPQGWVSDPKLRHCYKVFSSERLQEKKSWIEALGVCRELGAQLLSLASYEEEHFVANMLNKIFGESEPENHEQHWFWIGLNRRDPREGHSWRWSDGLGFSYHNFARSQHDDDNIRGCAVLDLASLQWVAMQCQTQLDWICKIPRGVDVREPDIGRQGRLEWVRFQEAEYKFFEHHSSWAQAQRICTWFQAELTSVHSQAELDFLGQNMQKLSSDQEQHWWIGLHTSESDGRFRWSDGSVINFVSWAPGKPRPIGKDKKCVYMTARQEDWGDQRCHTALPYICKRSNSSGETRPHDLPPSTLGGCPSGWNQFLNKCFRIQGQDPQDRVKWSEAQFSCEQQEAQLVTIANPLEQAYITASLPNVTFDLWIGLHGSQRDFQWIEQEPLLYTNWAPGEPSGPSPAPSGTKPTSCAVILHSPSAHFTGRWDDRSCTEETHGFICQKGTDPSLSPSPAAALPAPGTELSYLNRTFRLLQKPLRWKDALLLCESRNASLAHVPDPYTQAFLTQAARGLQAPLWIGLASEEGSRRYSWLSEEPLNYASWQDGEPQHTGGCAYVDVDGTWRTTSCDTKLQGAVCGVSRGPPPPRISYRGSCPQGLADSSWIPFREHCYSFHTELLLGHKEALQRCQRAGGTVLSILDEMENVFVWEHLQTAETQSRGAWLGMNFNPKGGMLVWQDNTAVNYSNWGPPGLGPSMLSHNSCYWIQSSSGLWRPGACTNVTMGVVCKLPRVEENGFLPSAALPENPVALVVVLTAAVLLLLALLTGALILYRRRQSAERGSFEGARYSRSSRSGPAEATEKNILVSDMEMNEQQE
Description: as §1
(§5) The recombinant mouse MMP-13 has essentially equivalent catalytic, kinetic, and binding activity as the rat MMP-13 homolog utilized in Example 1.

[6] = target: T2, low density lipoprotein receptor-related protein (Rattus norvegicus, UniProt G3V928); test: Scatchard analysis of 125I-mMMP-13 binding to UMR 106-01 cells, lower affinity site
T2 construct: endogenous in cells; host or cells: UMR 106-01 rat osteosarcoma cells
T2 sequence (G3V928 20-3944 limits assumed): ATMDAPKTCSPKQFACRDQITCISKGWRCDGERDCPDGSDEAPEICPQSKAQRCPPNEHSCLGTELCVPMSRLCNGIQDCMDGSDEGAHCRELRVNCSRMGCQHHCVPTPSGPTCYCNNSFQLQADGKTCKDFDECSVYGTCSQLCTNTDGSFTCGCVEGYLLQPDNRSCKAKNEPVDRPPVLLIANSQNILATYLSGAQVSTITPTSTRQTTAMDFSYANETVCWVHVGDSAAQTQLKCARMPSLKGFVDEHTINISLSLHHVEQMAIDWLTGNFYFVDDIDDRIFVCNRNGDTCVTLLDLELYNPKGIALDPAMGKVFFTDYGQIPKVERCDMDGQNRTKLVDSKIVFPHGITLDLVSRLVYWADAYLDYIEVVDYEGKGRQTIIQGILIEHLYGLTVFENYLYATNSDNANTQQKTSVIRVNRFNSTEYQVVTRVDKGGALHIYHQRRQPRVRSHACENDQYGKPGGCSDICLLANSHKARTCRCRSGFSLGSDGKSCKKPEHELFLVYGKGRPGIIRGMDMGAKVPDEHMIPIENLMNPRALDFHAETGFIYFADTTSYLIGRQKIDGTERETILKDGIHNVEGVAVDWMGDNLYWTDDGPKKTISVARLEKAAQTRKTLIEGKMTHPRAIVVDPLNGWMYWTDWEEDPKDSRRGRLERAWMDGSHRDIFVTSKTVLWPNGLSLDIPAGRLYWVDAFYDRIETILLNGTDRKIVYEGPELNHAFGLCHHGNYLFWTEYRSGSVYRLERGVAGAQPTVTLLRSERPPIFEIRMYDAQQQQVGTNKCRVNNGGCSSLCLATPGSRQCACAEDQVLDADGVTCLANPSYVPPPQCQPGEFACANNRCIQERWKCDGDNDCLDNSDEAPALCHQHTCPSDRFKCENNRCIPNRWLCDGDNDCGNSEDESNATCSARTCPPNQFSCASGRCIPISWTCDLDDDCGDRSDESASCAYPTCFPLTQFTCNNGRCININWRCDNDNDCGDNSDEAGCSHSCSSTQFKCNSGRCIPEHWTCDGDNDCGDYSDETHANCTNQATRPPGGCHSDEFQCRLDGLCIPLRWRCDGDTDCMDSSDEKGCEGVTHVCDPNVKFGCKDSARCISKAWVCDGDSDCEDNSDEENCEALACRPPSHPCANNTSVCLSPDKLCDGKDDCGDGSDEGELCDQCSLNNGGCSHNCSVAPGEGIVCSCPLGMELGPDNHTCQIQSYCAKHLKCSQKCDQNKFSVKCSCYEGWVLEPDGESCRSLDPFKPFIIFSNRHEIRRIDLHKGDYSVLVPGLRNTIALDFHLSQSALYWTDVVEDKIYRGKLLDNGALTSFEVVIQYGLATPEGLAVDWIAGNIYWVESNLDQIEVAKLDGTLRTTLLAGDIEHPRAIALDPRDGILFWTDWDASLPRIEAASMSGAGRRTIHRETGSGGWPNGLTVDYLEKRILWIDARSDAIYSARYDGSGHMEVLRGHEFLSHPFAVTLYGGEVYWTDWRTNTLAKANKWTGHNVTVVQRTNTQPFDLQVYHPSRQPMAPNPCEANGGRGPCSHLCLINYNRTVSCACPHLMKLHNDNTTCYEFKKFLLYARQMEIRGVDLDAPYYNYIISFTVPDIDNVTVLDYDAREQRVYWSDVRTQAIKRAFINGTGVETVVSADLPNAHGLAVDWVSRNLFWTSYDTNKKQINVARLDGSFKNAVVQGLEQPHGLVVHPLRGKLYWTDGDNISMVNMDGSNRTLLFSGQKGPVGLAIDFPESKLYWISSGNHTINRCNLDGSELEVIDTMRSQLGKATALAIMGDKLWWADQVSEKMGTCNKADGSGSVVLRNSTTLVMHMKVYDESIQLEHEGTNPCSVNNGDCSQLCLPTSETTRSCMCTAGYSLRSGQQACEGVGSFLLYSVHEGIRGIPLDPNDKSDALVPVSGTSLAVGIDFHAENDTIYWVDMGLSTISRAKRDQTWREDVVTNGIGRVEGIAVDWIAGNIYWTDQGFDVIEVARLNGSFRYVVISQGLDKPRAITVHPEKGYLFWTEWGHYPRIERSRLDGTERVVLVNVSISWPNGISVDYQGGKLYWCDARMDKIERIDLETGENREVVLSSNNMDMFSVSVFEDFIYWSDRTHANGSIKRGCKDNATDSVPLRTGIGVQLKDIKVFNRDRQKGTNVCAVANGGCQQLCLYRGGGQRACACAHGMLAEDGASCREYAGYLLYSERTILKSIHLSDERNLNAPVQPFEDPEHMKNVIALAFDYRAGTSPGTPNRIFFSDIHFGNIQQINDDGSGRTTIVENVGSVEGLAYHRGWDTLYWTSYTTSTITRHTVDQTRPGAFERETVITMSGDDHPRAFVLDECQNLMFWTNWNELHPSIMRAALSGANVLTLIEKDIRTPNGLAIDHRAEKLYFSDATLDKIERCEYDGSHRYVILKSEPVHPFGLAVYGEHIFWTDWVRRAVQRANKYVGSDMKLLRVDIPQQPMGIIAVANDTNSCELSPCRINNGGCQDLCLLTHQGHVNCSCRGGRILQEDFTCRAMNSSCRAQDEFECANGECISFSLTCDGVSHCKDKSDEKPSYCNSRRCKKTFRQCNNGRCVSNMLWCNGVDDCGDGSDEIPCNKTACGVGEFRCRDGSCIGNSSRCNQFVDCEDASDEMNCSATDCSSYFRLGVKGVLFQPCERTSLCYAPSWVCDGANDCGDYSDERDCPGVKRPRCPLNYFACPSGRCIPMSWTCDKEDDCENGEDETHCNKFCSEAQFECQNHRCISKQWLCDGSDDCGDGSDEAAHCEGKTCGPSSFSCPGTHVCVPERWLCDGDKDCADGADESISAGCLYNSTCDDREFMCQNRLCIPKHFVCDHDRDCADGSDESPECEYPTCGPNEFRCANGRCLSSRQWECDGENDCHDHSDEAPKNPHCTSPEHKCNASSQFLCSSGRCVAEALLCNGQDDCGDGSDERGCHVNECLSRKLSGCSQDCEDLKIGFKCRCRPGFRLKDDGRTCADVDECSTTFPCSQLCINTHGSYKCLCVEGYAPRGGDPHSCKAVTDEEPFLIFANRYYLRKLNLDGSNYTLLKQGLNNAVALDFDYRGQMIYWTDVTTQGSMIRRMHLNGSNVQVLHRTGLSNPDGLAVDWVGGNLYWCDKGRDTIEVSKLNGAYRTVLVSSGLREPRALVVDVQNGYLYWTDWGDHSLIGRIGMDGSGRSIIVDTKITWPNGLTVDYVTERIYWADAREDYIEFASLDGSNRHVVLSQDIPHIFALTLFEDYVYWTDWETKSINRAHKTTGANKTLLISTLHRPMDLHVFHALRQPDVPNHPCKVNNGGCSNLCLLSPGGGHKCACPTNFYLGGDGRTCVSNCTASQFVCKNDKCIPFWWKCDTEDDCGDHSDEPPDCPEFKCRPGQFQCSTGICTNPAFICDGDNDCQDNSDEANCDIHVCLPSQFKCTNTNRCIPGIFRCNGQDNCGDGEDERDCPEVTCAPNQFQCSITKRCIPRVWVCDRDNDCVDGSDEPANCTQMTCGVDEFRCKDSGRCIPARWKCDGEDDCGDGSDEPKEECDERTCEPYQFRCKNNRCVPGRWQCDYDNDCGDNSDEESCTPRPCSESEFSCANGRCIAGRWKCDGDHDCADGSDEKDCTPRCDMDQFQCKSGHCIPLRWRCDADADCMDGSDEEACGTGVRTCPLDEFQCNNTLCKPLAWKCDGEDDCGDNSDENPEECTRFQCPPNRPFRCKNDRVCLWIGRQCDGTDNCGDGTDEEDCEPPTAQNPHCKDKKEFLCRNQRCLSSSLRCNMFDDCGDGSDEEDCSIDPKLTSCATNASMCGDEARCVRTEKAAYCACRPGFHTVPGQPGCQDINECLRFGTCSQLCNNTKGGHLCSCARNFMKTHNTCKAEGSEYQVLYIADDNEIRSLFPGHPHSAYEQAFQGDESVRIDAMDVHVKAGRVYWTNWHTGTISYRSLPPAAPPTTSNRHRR
T2 sequence (G3V928 3945-4545 partner limits assumed): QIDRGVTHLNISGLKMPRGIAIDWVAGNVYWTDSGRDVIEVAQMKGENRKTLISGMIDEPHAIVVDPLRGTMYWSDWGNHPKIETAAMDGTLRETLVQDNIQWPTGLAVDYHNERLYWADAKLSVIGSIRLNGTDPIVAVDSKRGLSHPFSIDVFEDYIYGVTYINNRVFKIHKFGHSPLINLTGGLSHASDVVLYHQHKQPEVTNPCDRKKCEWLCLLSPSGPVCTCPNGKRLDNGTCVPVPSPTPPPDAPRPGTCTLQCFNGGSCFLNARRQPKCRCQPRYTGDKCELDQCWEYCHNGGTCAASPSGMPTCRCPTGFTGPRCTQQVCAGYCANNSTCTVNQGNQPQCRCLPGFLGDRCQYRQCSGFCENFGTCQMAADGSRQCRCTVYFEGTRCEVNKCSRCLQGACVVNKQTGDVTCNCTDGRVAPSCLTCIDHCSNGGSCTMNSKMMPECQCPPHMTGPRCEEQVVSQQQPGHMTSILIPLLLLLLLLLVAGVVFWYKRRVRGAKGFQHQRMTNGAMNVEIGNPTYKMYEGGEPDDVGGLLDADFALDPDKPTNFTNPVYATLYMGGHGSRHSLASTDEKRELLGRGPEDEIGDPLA
Description: as §1, §5

Row | Substance | competition efficiency compared to full-length collagenase-3 (UMR 106-01 cells [1]) | percent of mouse collagenase-3 binding, UMR-106-01 (UMR 106-01 cells [1]) | percent of mouse collagenase-3 binding, MEF 1 [2] | binding to UMR cells (in words) [3] | percent of mouse collagenase-3 binding, MEF-2 (LRP null) [4] | other results
1 | H/M (229-472): chimeric collagenase: human MMP-1 N-terminus, mouse MMP-13 residues 229-472 | < 17% | 16.5 ± 5.8% | 2.2 ± 1.1% | – | – | –
2 | HM (141-228)/H: chimeric collagenase: mouse MMP-13 residues 141-228 in human MMP-1 | 90% | 89.9 ± 5.3% | 94.3 ± 4.7% | capable of binding specifically to UMR cells | 75.1 ± 13.7% | endocytosis of iodinated construct compared to full-length collagenase-3 (in words) (UMR 106-01 cells [5]): significantly reduced endocytosis
3 | HM (166-228)/H: chimeric collagenase: mouse MMP-13 residues 166-228 in human MMP-1 | – | 67.8 ± 3.4% | 80.8 ± 6.0% | – | 97.2 ± 1.7% | competition for 125I mouse collagenase-3 binding (in words) (UMR 106-01 cells [1]): impaired ability to compete for receptor binding
4 | HM/M (141-472): chimeric collagenase: human MMP-1 N-terminus, mouse MMP-13 residues 141-472 | – | 95.7 ± 3.9% | 84.4 ± 6.1% | – | – | competition for receptor binding in MEF-2 cells (in words) [4]: significantly impaired ability to compete for receptor binding
5 | Human MMP-1: human fibroblast collagenase-1 (interstitial collagenase) | – | 0% | – | – | – | Specific binding [3]: 0.1 ± 1.4 fmol/2.6 × 10^5 cells
6 | Human MMP-3: human stromelysin-1 (MMP-3) | – | – | – | – | – | Specific binding [3]: 0.0 ± 0.0 fmol/2.6 × 10^5 cells
7 | M (1-228)/H: chimeric collagenase: mouse MMP-13 residues 1-228, remainder human MMP-1 | greater than 90% | 85.3 ± 3.0% | 85.9 ± 10.5% | capable of binding specifically to UMR cells | 41.9 ± 9.7% | competition for receptor binding in MEF-2 cells (in words) [4]: impaired binding in MEF-2 cells; endocytosis of iodinated construct compared to full-length collagenase-3 (in words) (UMR 106-01 cells [5]): significantly reduced endocytosis
8 | MMP-13 (1-265): C-terminally truncated mouse collagenase-3 | – | 100% | 100% | – | – | competition for 125I mouse collagenase-3 binding (in words) (UMR 106-01 cells [1]): essentially equivalent manner compared to full-length MMP-13
9 | MMP-13 (1-472): recombinant full-length mouse collagenase-3, residues 1-472 | – | – | – | binds equally as well as the rat enzyme | – | binding to UMR cells (in words) ([3]; listed as mMMP-13): specifically and saturably; Bmax, high affinity site (collagenase-3 receptor; Scatchard analysis): 73.9 pmol/10^5 cells; Bmax, high affinity site (collagenase-3 receptor; computer analysis with the GraphPad InPlot program): 75 pmol/10^5 cells; Bmax, lower affinity site ([6]; Scatchard analysis): 660 pmol/10^5 cells; Bmax, lower affinity site ([6]; computer analysis): 834 pmol/10^5 cells
